Measured values taken from patent US20030195212A1, “Novel melanocortin receptor agonists and antagonists” (priority 2000, published 2003).
pKi: −log10 of the molar value.

Key:
human MC5 receptor [1] = target: T1, human MC5 receptor (Homo sapiens, UniProt P33032); test: Affinity for the MC5-receptor, displacement of I125-NDP-MSH; assay type: binding; conditions: Sf9 or COS cells transfected with human MC5, I125-NDP-MSH ligand; read-out: Affinity for MC-receptors Ki MC5
T1 construct: expressed in transfected cells; host or cells: Sf9 insect cells or COS cells
Experimental: (§1) Test 2. Affinity for the MC3-Receptors, the MC4-Receptors and the MC5-Receptors
(§2) The binding assays were carried out essentially as described by Szardenings et al., J. Biol. Chem. 1997; 272; 27943-27948 and Schiöth et al., FEBS Lett. 1997; 410; 223-228 using I^125-NDP-α-MSH as ligand.
(§3) Essentially, the affinity of the compounds to the different receptors were determined using either insect cells (Sf9) or COS cells, which were transfected with recombinant human MC3, MC4 or MC5 receptors. For the determination of the affinity to the MC1 receptor, B16 mouse melanoma cells were used, which endogenously express the (mouse) MC1 receptor.
(§4) The compounds were tested at different concentrations for their ability to displace I^125-labelled NDP-MSH from the respective receptor. Incubation was performed in 96-well plates using 50,000 cells/well (Sf9 or COS cells) up to 200,000 cells/well (mouse melanoma cells).
(§5) The test compound or standard (NDP-MSH) was added in an appropriate concentration (generally between 10^−4 M and 10^−12 M) together with labelled tracer (approx. 50,000 cpm/well) and incubation was performed for 2 hours (at room temperature for Sf 9 cells and at +37° C. for COS cells and mouse melanoma cells).
(§6) After the incubation, the cells were washed twice to get rid of excess tracer and compound, and the cells were lysed with 0.1M NaOH. The lysate was counted in a gamma-counter, binding was calculated and the affinity then determined.

human MC3 receptor [2] = target: T2, human MC3 receptor (Homo sapiens, UniProt P41968); test: Affinity for the MC3-receptor, displacement of I125-NDP-MSH; assay type: binding; conditions: Sf9 or COS cells transfected with human MC3, I125-NDP-MSH ligand; for pKi: read-out: Affinity for MC-receptors Ki MC3
T2 construct: expressed in transfected cells; host or cells: Sf9 insect cells or COS cells
Experimental: as §1, §2, §3, §4, §5, §6

MC1 receptor [3] = target: T3, MC1 receptor (Mus musculus, UniProt Q01727); test: Affinity for the MC1-receptor, displacement of I125-NDP-MSH; assay type: binding; conditions: B16 mouse melanoma cells, I125-NDP-MSH ligand; read-out: Affinity for MC-receptors Ki MC1
T3 construct: B16 mouse melanoma cells were used, which endogenously express the (mouse) MC1 receptor; endogenous in cells; host or cells: B16 mouse melanoma cells
Experimental: Test 1. Affinity for the MC1-Receptor
The binding assay was carried out essentially as described by Lunec et al Melanoma Res 1992; 2; 5-12 using I^125α-NDP-MSH as ligand.
as §3, §4, §5, §6

Female BALB/c mice = test: Anti-inflammatory effects: total number of white blood cells in DNFB model; assay type: in vivo, mouse; conditions: i.p., 0.05-0.75 mg/kg, blood collected 24 hours after last challenge
Experimental: Anti-Inflammatory Effects
Female BALB/c mice (weight 20-22 g) were sensitized by treatment of the shaved abdomen with 30 μl of 0.5% 2,4-dinitrofluorobenzene (DNFB). After 4 days they were challenged with 10 μl of 0.3% DNFB to the paw. The unchallenged mice paws served as a control. Twenty-four hours after the last challenge, the difference in paws weight were determined as an indicator of the inflammation (paw oedema).
Mice were treated as the control but were additionally injected i.p. with various doses (0.05, 0.15 or 0.25, 0.375, 0.5 and 0.75 mg/kg) of each compounds two hours before sensitization (day 0) and the same dose was administered repeatedly after sensitization during four consecutive days. The paw edema inhibition as described above. Groups containing at least 10 mice each were used for all experiments.
Blood analysis was carried out using the QBC® Autoread™ Plus & QBC® Accutube System (Becton Dickinson). In all cases blood samples were collected twenty-four hours after the last challenge.

human MC4 receptor [4] = target: T4, human MC4 receptor (Homo sapiens, UniProt P32245); test: Affinity for the MC4-receptor, displacement of I125-NDP-MSH; assay type: binding; conditions: Sf9 or COS cells transfected with human MC4, I125-NDP-MSH ligand; read-out: Affinity for MC-receptors Ki MC4
T4 construct: expressed in transfected cells; host or cells: Sf9 insect cells or COS cells
Experimental: as §1, §2, §3, §4, §5, §6

human MC3 receptor [5] = target: T2, human MC3 receptor; test: cAMP assay, MC3 receptor (transfected Sf9 or COS cells); assay type: cell-based; conditions: 20 minutes at +37° C.
Experimental: (§7) Test 3. cAMP Assay p The stimulation of cAMP was carried out essentially as described by Schiöth et al., Br. J. Pharmacol. 1998; 124; 75-82.
(§8) Essentially, the effects of the compounds were tested […] for their ability to stimulate the production of cAMP. The cells used were the same ones that were used for the binding assays (see above), i.e. for the MC1 receptor mouse melanoma B16 cells were used and for the MC3, MC4 and MC5 receptors, Sf9 or COS cells, transfected with the respective human receptors.
(§9) Cyclic AMP was stimulated by the addition of the compounds at different concentrations in the presence of a phosphodiesterase inhibitor, during a period of 20 minutes at +37° C. cAMP was extracted with PCA, neutralised with KOH and the mixture was then centrifuged.
(§10) The concentration of cAMP was determined using a binding assay comprising binding protein (from bovine adrenals). Tritiated cAMP, used as tracer, and extracts (from above) in different dilutions were incubated at +4° C. for 120-150 minutes. The cAMP in the unknown samples displaced the labelled cAMP from binding to the binding protein. The binding protein-cAMP/tracer complex was harvested using a filter technique and the filters were counted using a beta-counter. The concentrations of cAMP in the unknown extracts were calculated using a standard curve of known concentrations.

MC1 receptor [6] = target: T3, MC1 receptor; test: cAMP assay, MC1 receptor (mouse melanoma B16 cells); assay type: cell-based; conditions: 20 minutes at +37° C.
Experimental: as §7, §8, §9, §10

human MC4 receptor [7] = target: T4, human MC4 receptor; test: cAMP assay, MC4 receptor (transfected Sf9 or COS cells); assay type: cell-based; conditions: 20 minutes at +37° C.
Experimental: as §7, §8, §9, §10

human MC5 receptor [8] = target: T1, human MC5 receptor; test: cAMP assay, MC5 receptor (transfected Sf9 or COS cells); assay type: cell-based; conditions: 20 minutes at +37° C.
Experimental: as §7, §8, §9, §10

[9] = tested on: Sprague-Dawley, male rats; test: In vivo effects on food intake, nocturnal protocol, icv; set-up: species or system rat
From the text: (§11) In Vivo Effects on Food Intake
(§12) Compounds have been tested for their effects on food intake and body weight in rats.
(§13) In order to investigate the agonistic effect, i.e. decrease in food intake, of compounds, the nocturnal protocol was used. Sprague-Dawley, male rats were used, which were cannulated intracerebroventricularly. Stainless steel guide cannulae were placed in the lateral ventricle and fixed in the skull. Animals were acclimatized for a week before the experiments took place. After the experiments were done, the rats were killed and placement of the cannulae were checked.
(§14) Rats were cannulated as described above. They were used without prior starvation, and compounds were administered at 5 pm in a total volume of 5 μl. Doses of Compound 2:4 used were 1, 4 and 10 nmoles. Food intake was measured at 3, 15 and 24 hours after dosing, and body weight was recorded at 24 hours. For comparison, the well known MC4 receptor agonist, Melanotan II (MTII) was used, at a dose of 1 nmole.

[10] = tested on: Sprague-Dawley, male rats; test: In vivo effects on body weight gain, nocturnal protocol, icv; set-up: species or system rat; conditions: icv, 1, 4 and 10 nmoles, recorded at 24 hours
From the text: as §11, §12, §13, §14

T4 sequence (P32245 whole entry): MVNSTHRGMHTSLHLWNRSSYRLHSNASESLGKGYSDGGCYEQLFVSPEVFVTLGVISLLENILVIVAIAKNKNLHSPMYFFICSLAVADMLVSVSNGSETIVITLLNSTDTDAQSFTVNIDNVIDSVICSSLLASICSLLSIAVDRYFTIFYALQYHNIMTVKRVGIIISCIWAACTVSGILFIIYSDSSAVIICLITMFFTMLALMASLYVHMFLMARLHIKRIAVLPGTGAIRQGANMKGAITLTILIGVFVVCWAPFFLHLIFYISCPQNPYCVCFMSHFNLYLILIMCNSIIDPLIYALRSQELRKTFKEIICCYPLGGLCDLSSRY
T3 sequence (Q01727 whole entry): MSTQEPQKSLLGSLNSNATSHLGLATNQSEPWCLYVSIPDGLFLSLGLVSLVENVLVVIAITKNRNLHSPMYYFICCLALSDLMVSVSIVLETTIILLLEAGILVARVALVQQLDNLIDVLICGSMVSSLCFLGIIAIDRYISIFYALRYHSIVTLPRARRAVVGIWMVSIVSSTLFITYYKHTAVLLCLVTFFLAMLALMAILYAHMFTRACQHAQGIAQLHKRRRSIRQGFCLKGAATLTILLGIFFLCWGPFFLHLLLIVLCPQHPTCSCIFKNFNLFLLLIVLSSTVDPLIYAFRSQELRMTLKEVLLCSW
T1 sequence (P33032 whole entry): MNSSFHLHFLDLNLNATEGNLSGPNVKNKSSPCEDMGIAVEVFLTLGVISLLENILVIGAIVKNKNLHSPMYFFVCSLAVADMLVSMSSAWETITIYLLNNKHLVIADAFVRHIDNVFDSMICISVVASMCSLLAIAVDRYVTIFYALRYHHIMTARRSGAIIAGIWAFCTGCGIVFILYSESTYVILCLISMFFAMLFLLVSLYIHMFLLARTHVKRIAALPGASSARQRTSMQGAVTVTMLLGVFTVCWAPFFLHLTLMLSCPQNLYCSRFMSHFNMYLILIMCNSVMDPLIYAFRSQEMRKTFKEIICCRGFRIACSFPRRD
T2 sequence (P41968 whole entry): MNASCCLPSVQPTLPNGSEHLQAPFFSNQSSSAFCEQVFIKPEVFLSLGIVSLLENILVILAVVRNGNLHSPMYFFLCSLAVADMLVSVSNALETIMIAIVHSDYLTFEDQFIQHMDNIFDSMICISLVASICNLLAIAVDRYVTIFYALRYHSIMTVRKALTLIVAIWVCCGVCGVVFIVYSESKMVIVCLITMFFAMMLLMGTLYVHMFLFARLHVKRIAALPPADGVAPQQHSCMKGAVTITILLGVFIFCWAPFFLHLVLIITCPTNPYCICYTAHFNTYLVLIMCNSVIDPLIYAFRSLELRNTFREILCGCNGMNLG

Row | Structure (SMILES) | pKi (human MC5 receptor [1]) | pKi (human MC3 receptor [2]) | pKi (MC1 receptor [3]) | white blood cell count (Female BALB/c mice) | pKi (human MC4 receptor [4]) | Influence on cAMP MC3c (human MC3 receptor [5]) | Influence on cAMP MC1c (MC1 receptor [6]) | Influence on cAMP MC4c (human MC4 receptor [7]) | Influence on cAMP MC5c (human MC5 receptor [8]) | Affinity for MC-receptors Ki MC3 (human MC3 receptor [2]) | effects at the highest dose compared with MTII ([9]; icv, 10 nmoles versus MTII 1 nmole, food intake and body weight gain) | food intake ([9]; icv, 1, 4 and 10 nmoles, measured at 3, 15 and 24 hours after dosing) | body weight gain [10]
1 | N=C(N)NCCCCN(Cc1ccccc1)C(=O)C(Cc1c[nH]c2ccccc12)NC(=O)Cc1ccc2ccccc2c1 (centres unmarked) [Compound 1:17, N-Benzyl-N-(4-guanidino-butyl)-3-(1H-indol-3-yl)-2-(2-naphthalen-2-yl-acetylamino)-propionamide] | 4.36 | 4.45 | 6.22 | clearly dose dependent | 5.51 | – | – | – | – | – | – | – | –
2 | CCn1c2ccccc2c2cc(NC(=O)C(Cc3c[nH]c4ccccc34)NC(=O)CCN)ccc21 (centres unmarked) [2:14, 2-(3-Amino-propionylamino)-N-(9-ethyl-9H-carbazol-3-yl)-3-(1H-indol-3-yl)-propionamide] | – | – | – | – | – | 116 percentage of the baseline | 162 percentage of the baseline | 237 percentage of the baseline | 164 percentage of the baseline | – | – | – | –
3 | CCn1c2ccccc2c2cc(NC(=O)C(Cc3c[nH]c4ccccc34)NC(=O)CCCNC(=N)N)ccc21 (centres unmarked) [2:6, N-[1-(9-Ethyl-9H-carbazol-3-ylcarbamoyl)-2-(1H-indol-3-yl)-ethyl]-4-guanidino-butyramide] | 4.75 | – | 5.57 | – | 4.68 | – | 354 percentage of the baseline | 61 percentage of the baseline | 117 percentage of the baseline | nb | – | – | –
4 | N=C(N)NCCCC(=O)NC(Cc1c[nH]c2ccccc12)C(=O)NCCc1c[nH]c2ccccc12 (centres unmarked) [Compound 2:4, 4-Guanidino-N-{2-(1H-indol-3-yl)-1-[2-(1H-indol-3-yl)-ethylcarbamoyl]-ethyl}-butyramide] | – | – | – | – | – | – | – | – | – | – | in the same range as that observed with MTII | the intermediate and the highest dose is significantly different from vehicle treated animals | dose dependent and significantly different from vehicle treated animals at the highest dose tested
5 | NCCCNC(=O)C(Cc1c[nH]c2ccccc12)NC(=O)Cc1cccc2ccccc12 (centres unmarked) [1:6, N-(3-Amino-propyl)-3-(1H-indol-3-yl)-2-(2-naphthalen-1-yl-acetylamino)-propionamide] | 4.51 | 4.43 | 4.90 | – | 4.60 | – | 375 percentage of the baseline | 99 percentage of the baseline | 76 percentage of the baseline | – | – | – | –
6 | N=C(N)NCCCCN(Cc1ccccc1)C(=O)C(Cc1c[nH]c2ccccc12)NC(=O)CCCc1ccccc1 (centres unmarked) [Compound 1:15, N-[1-[Benzyl-(4-guanidino-butyl)-carbamoyl]-2-(1H-indol-3-yl)-ethyl]-4-phenyl-butyramide] | 4.45 | 4.63 | 5.89 | clearly dose dependent | 5.25 | – | – | – | – | – | – | – | –
7 | CCn1c2ccccc2c2cc(NC(=O)C(Cc3c[nH]c4ccccc34)NC(=O)CCCN)ccc21 (centres unmarked) [Compound 2:7, 4-Amino-N-[1-(9-ethyl-9H-carbazol-3-ylcarbamoyl)-2-(1H-indol-3-yI)-ethyl]-butyramide] | 4.60 | – | 5.59 | – | 4.74 | – | 315 percentage of the baseline | 79 percentage of the baseline | 154 percentage of the baseline | nb | – | – | –
